Data published in ChEMBL document CHEMBL1153992, “2-Azidoalkoxy-7-hydro-8-oxoadenine derivatives as TLR7 agonists inducing dendritic cell maturation” (Bioorg Med Chem Lett, 2009).
Active and inactive are the calls of the source. No cut-off for these calls is given here.

What was measured:
Format in all cases: cell-based
[1] = molecular target: T1, Toll-like receptor 7 (Mus musculus) (UniProt P58681); experiment: Induction of TLR7 receptor-mediated C57BL/6 mouse BMD cells activation assessed as upregulation of CD86 at 1 uM after 48 hrs by flow cytometry
T1 sequence (whole entry): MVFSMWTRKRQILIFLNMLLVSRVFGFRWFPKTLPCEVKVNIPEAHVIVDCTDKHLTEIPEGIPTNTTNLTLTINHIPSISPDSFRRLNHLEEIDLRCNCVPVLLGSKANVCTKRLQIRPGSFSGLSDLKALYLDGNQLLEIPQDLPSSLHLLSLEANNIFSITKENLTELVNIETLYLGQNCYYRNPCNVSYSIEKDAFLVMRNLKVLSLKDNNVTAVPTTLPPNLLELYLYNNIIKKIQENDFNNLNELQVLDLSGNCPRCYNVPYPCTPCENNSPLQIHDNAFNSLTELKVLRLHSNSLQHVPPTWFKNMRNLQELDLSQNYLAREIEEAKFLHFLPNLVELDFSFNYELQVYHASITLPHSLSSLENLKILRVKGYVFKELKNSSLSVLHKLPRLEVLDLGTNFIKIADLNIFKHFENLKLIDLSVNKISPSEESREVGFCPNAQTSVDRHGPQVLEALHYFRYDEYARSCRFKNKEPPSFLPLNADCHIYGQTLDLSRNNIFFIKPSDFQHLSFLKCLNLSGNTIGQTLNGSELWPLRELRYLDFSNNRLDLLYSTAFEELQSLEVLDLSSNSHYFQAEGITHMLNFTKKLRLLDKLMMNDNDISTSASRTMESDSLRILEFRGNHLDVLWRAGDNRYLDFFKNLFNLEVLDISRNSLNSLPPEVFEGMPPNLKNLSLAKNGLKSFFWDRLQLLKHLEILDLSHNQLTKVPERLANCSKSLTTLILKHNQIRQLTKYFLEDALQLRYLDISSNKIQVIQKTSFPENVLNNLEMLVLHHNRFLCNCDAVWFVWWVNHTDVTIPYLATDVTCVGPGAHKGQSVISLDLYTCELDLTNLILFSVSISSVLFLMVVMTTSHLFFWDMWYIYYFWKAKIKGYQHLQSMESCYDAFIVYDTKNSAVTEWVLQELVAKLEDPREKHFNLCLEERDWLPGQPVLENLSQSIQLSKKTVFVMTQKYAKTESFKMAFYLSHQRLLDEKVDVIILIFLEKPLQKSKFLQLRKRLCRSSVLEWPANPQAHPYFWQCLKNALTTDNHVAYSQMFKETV

[2] = molecular target: T1, Toll-like receptor 7 (Mus musculus); experiment: Induction of TLR7 receptor-mediated C57BL/6 mouse BMD cells activation assessed as upregulation of MHC class-2 at 1 uM after 48 hrs by flow cytometry
[3] = molecular target: T1, Toll-like receptor 7 (Mus musculus); experiment: Induction of TLR7 receptor-mediated C57BL/6 mouse BMD cells activation assessed as upregulation of CD40 at 1 uM after 48 hrs by flow cytometry
[4] = molecular target: T1, Toll-like receptor 7 (Mus musculus); experiment: Induction of TLR7 receptor-mediated C57BL/6 mouse BMD cells activation assessed as IL12 production at 5 uM after 24 hrs by ELISA
[5] = molecular target: T1, Toll-like receptor 7 (Mus musculus); experiment: Induction of TLR7 receptor-mediated C57BL/6 mouse BMD cells activation assessed as IL12 production at 10 nM after 24 hrs by ELISA
[6] = molecular target: T1, Toll-like receptor 7 (Mus musculus); experiment: Induction of TLR7 receptor-mediated C57BL/6 mouse BMD cells activation assessed as IL12 production at 0.1 uM after 24 hrs by ELISA

SMILES	Activity [1]	Activity [2]	Activity [3]	Activity [4]	Activity [5]	Activity [6]
CCOCc1nc2c(N)nc3ccccc3c2n1CC(C)(C)O	Active	Active	Active	Active	–	–
CCCCOc1nc(N)c2[nH]c(=O)n(Cc3ccccc3)c2n1	Active	Active	Active	Active	Active	–
[N-]=[N+]=NCCOCCOc1nc(N)c2[nH]c(=O)n(Cc3ccccc3)c2n1	Active	Active	Active	Active	–	–
[N-]=[N+]=NCCOCCOCCOc1nc(N)c2[nH]c(=O)n(Cc3ccccc3)c2n1	inactive	inactive	inactive	–	–	–
[N-]=[N+]=NCCCOc1nc(N)c2[nH]c(=O)n(Cc3ccccc3)c2n1	Active	Active	Active	Active	–	Active
[N-]=[N+]=NCCCCCCOc1nc(N)c2[nH]c(=O)n(Cc3ccccc3)c2n1	Active	Active	Active	Active	–	–
COCCOc1nc(N)c2[nH]c(=O)n(Cc3ccccc3)c2n1	Active	Active	Active	Active	–	–
[N-]=[N+]=NCCOc1nc(N)c2[nH]c(=O)n(Cc3ccccc3)c2n1	Active	Active	Active	Active	–	Active
[N-]=[N+]=NCCCCOc1nc(N)c2[nH]c(=O)n(Cc3ccccc3)c2n1	Active	Active	Active	Active	–	–
[N-]=[N+]=NCCCCCOc1nc(N)c2[nH]c(=O)n(Cc3ccccc3)c2n1	Active	Active	Active	Active	–	–
